Patent publication US12371454B2, “Cyclic peptide compound having Kras inhibitory action” (priority 2019, dated 2025)
Positions of bridges follow the written chain, without caps; N, C: chain ends. Non-standard residues stand in square brackets, D forms with d. Residues, ends and D or L forms follow the SMILES beside them. *: point of attachment. hPhe(3-Cl-4-CF3) = N[C@@H](CCc1ccc(C(F)(F)F)c(Cl)c1)C(=O)O; hPhe(3-F,4-CF3) = N[C@@H](CCc1ccc(C(F)(F)F)c(F)c1)C(=O)O; NMePhe(4-CF3) = CN[C@@H](Cc1ccc(C(F)(F)F)cc1)C(=O)O; 3Oxa8azabicyclo(3.2.1)octane = C1CC2COCC1N2*; NMeAbu(4,4,4-F3) = CN[C@@H](CC(F)(F)F)C(=O)O; NMePhe(4-Cl) = CN[C@@H](Cc1ccc(Cl)cc1)C(=O)O; NMeNle(6-CHF2) = CN[C@@H](CCCCC(F)F)C(=O)O; NMePhe(4-F) = CN[C@@H](Cc1ccc(F)cc1)C(=O)O; Leu(4,5-dehydro) = C=C(C)C[C@H](N)C(=O)O; Phe(3-I) = N[C@@H](Cc1cccc(I)c1)C(=O)O; Pro(4,4-F2) = O=C(O)[C@@H]1CC(F)(F)CN1; NMeCha = CN[C@@H](CC1CCCCC1)C(=O)O; NMeChg = CN[C@H](C(=O)O)C1CCCCC1; NMeF = CN[C@@H](Cc1ccccc1)C(=O)O; NMeD = CN[C@@H](CC(=O)O)C(=O)O; NMeL = CN[C@@H](CC(C)C)C(=O)O; NMeV = CN[C@H](C(=O)O)C(C)C; Trifluoroethyl = FC(F)(F)C*; d(β3hA) = C[C@@H](N)CC(=O)O; NMeS = CN[C@@H](CO)C(=O)O; Morpholide = C1CN(*)CCO1; NMeA = CN[C@@H](C)C(=O)O; NMeAib = CNC(C)(C)C(=O)O; Piperidide = C1CCN(*)CC1; Pyrrolidide = C1CCN(*)C1; dNMeA = CN[C@H](C)C(=O)O; Ac5c = NC1(C(=O)O)CCCC1; Aze = O=C(O)[C@@H]1CCN1; Aib = CC(C)(N)C(=O)O; Sar = CNCC(=O)O

Biological target: T1, Kras and SOS1 (biotin-tagged human Kras loaded with GDP, His-tagged human SOS1) (Homo sapiens, UniProt P01116, G12D)
T1 construct: made in house; host or cells: E. coli (stated for Kras only)
T1 sequence (P01116 1-188 isoform P01116-2 G12D): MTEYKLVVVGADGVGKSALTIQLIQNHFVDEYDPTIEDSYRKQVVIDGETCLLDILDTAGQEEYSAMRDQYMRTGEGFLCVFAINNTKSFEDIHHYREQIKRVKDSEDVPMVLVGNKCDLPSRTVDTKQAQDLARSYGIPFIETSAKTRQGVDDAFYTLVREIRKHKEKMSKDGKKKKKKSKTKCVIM
Assay: Protein-protein interaction inhibition between Kras and SOS1 (KrasGl2D-SOS PPI) using AlphaScreen
Format: binding
Details: AlphaScreen; biotin-tagged human Kras loaded with GDP, His-tagged human SOS1; read-out: KRAS G12D-SOS PPI IC50
In short: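 Energy transfer from nickel-chelate donor beads bound to His-SOS1 to streptavidin acceptor beads bound to biotin-Kras, expressed in E. coli and loaded with GDP after purification, was monitored. Donors were excited at 680 nm; singlet oxygen reaching acceptors gave emission read at 520-620 nm.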

SMILES	IC50
CC[C@H](C)[C@@H]1NC(=O)[C@H](C)N(C)C(=O)C[C@@H](C)NC(=O)[C@H](C(C)C)N(C)C(=O)[C@H](Cc2ccccc2)N(C)C(=O)[C@H](CC(C)C)N(C)C(=O)[C@H](CCc2ccc(C(F)(F)F)c(F)c2)NC(=O)CN(C)C(=O)[C@H](Cc2ccc(Cl)cc2)N(C)C(=O)[C@@H]2CCN2C(=O)CN(C)C1=O [Compound 782] (cyclo([Aze][NMePhe(4-Cl)][Sar][hPhe(3-F,4-CF3)][NMeL][NMeF][NMeV][d(β3hA)][NMeA]I[Sar]))	21 nM
CC[C@H](C)[C@@H]1NC(=O)[C@H](C)N(C)C(=O)C[C@@H](C(=O)N2CCCCC2)N(C)C(=O)[C@H](C(C)C)N(C)C(=O)C2(CCCC2)NC(=O)[C@@H]2CCCN2C(=O)[C@H](CCc2ccc(C(F)(F)F)c(Cl)c2)NC(=O)CN(C)C(=O)[C@H](Cc2ccc(F)cc2)N(C)C(=O)[C@@H]2CCCN2C(=O)CN(C)C1=O [Compound 1698] ([NMeA]I[Sar]P[NMePhe(4-F)][Sar][hPhe(3-Cl-4-CF3)]P[Ac5c][NMeV][NMeD]-Piperidide; lactam N-11)	1.2 nM
C=C(C)C[C@@H]1NC(=O)[C@H](Cc2cccc(I)c2)NC(=O)CN(C)C(=O)[C@H](Cc2ccc(Cl)cc2)N(C)C(=O)[C@@H]2CCN2C(=O)[C@H](C)N(C)C(=O)[C@H]([C@@H](C)CC)NC(=O)[C@H](CC(C)C)N(C)C(=O)C[C@@H](C(=O)N2CCCCC2)N(C)C(=O)[C@H](CC(C)C)NC(=O)C(C)(C)N(C)C1=O [Compound 1429] ([NMeL]I[NMeA][Aze][NMePhe(4-Cl)][Sar][Phe(3-I)][Leu(4,5-dehydro)][NMeAib]L[NMeD]-Piperidide; lactam N-11)	44 nM
CC(C)C[C@H]1C(=O)N[C@@H](COCC(F)(F)F)C(=O)N(C)CC(=O)N(C)CC(=O)N(C)[C@@H](CC2CCCCC2)C(=O)N(C)CC(=O)N[C@@H](CCc2ccc(C(F)(F)F)c(Cl)c2)C(=O)N2CCC[C@H]2C(=O)NC2(CCCC2)C(=O)N(C)[C@@H](C2CCCCC2)C(=O)N(C)[C@H](C(=O)N2CCCCC2)CC(=O)N1C [Compound 894] ([NMeL]S(Trifluoroethyl)[Sar][Sar][NMeCha][Sar][hPhe(3-Cl-4-CF3)]P[Ac5c][NMeChg][NMeD]-Piperidide; lactam N-11)	11 nM
CC[C@H](C)[C@@H]1NC(=O)[C@H](CC(C)C)N(C)C(=O)C[C@@H](C(=O)N2CCCC2)NC(=O)[C@H](CC(C)C)N(C)C(=O)C(C)(C)NC(=O)[C@H](CC(C)C)N(C)C(=O)[C@H](CCc2ccc(C(F)(F)F)c(F)c2)NC(=O)CN(C)C(=O)[C@H](CCCCC(F)F)N(C)C(=O)CN(C)C(=O)CN(C)C1=O [Compound 1455] ([NMeL]I[Sar][Sar][NMeNle(6-CHF2)][Sar][hPhe(3-F,4-CF3)][NMeL][Aib][NMeL]D-Pyrrolidide; lactam N-11)	30 nM
CC[C@H](C)[C@@H]1NC(=O)[C@H](C)N(C)C(=O)C[C@@H](C(=O)N2CCCCC2)N(C)C(=O)[C@H](C(C)C)N(C)C(=O)C2(CCCC2)NC(=O)[C@@H]2CCCN2C(=O)[C@H](CCc2ccc(C(F)(F)F)c(Cl)c2)NC(=O)[C@@H](C)N(C)C(=O)[C@H](Cc2ccccc2)N(C)C(=O)CN(C)C(=O)CN(C)C1=O [Compound 1844] ([NMeA]I[Sar][Sar][NMeF][dNMeA][hPhe(3-Cl-4-CF3)]P[Ac5c][NMeV][NMeD]-Piperidide; lactam N-11)	17 nM
CC[C@H](C)[C@@H]1NC(=O)[C@H](CC(F)(F)F)N(C)C(=O)C[C@@H](C(=O)N2CCOCC2)N(C)C(=O)[C@H](C2CCCCC2)N(C)C(=O)C2(CCCC2)NC(=O)[C@@H]2CCCN2C(=O)[C@H](CCc2ccc(C(F)(F)F)c(Cl)c2)NC(=O)CN(C)C(=O)[C@H](Cc2ccc(C(F)(F)F)cc2)N(C)C(=O)CN(C)C(=O)CN(C)C1=O [Compound 981] ([NMeAbu(4,4,4-F3)]I[Sar][Sar][NMePhe(4-CF3)][Sar][hPhe(3-Cl-4-CF3)]P[Ac5c][NMeChg][NMeD]-Morpholide; lactam N-11)	0.37 nM
CC[C@H](C)[C@@H]1NC(=O)[C@H](COC)N(C)C(=O)C[C@@H](C(=O)N2CCCCC2)N(C)C(=O)[C@H](C(C)C)N(C)C(=O)C2(CCCC2)NC(=O)[C@@H]2CCCN2C(=O)[C@H](CCc2ccc(C(F)(F)F)c(Cl)c2)NC(=O)CN(C)C(=O)[C@H](CC2CCCCC2)N(C)C(=O)[C@@H]2CCN2C(=O)[C@H](C)N(C)C1=O [Compound 636] ([NMeS](Me)I[NMeA][Aze][NMeCha][Sar][hPhe(3-Cl-4-CF3)]P[Ac5c][NMeV][NMeD]-Piperidide; lactam N-11)	1.1 nM
CC[C@H](C)[C@@H]1NC(=O)[C@H](CC(C)C)N(C)C(=O)C[C@@H](C(=O)N2C3CCC2COC3)N(C)C(=O)[C@H](C2CCCCC2)N(C)C(=O)C2(CCCC2)NC(=O)[C@@H]2CC(F)(F)CN2C(=O)[C@H](CCc2ccc(C(F)(F)F)c(Cl)c2)NC(=O)CN(C)C(=O)[C@H](CC2CCCCC2)N(C)C(=O)CN(C)C(=O)CN(C)C1=O [Compound 1179] ([NMeL]I[Sar][Sar][NMeCha][Sar][hPhe(3-Cl-4-CF3)][Pro(4,4-F2)][Ac5c][NMeChg][NMeD]-{3Oxa8azabicyclo(3.2.1)octane}; lactam N-11)	0.52 nM
